Results from PMC11078746 (Nature, 2024).
Where “and” joins values, the source holds several entries; their conditions need not be identical. Equal values may be shown once.

Experiments:
[1] = Mouse body weight, SW48 xenograft study with HRO761; format: in vivo; parameters: Body weight change, individual animals / Body weight change, group mean: unit not given here; conditions: for Body weight change, group mean / Body weight change, individual animals: SW48 xenograft-bearing mice
Experimental: All animal studies were conducted in accordance with ethics and procedures covered by permit BS-2275 and BS-1975 issued by the Kantonales Veterinäramt Basel-Stadt and in strict adherence to guidelines of the Eidgenössisches Tierschutzgesetz and the Eidgenössische Tierschutzverordnung, Switzerland. All animal studies were approved by the internal ethics committee. All animals had access to food and water ad libitum and were identified with transponders. They were housed in a specific-pathogen-free facility in IVC racks under a 12 h–12 h light–dark cycle. To establish cell-line-derived xenograft models, 6–7-week-old female athymic nude (Crl:NU(NCr)-Foxn1^nu) or SCID-BEIGE (CB17.Cg-PrkdcscidLystbg-J/Crl) mice from Charles River were engrafted subcutaneously with 5 million tumour cells in HBSS (H6648, Sigma-Aldrich). For SNU-407, Lovo, IM95, RL95.2, Ishikawa and IGROV-1, the cells were concentrated in 50% Matrigel (354234, Corning). Patient-derived xenografts were induced and expanded by transplantation as previously described. […] For the efficacy experiment, mice were randomized into groups (n = 5–6) for a mean tumour size of 100–150 mm^3. […] Blood samples were collected on day 7 and 91. […] Tumour responses are reported with the measures of tumour volumes from the treatment start. […] Animals were randomized (n = 3) and tumour samples were collected at 0, 1, 4, 8 and 24 h on the first day and then collected 4 h after the last treatment on day 3, 8, 10, 14 (including a 24 h timepoint), 17 and 21. Tumours were excised, weighed, either frozen in liquid nitrogen and cryogenic dry pulverized with the CryoPrep system (model CP-02, Covaris) or processed to FFPE after fixation. […] On day 12, blood samples were collected for PK analysis. On the last day (3 h after the last treatment), tumours were excised, weighed, frozen in liquid nitrogen and cryogenic dry pulverized for PD analysis.

JHUEM2 = experiment: CFA 10-14 day clonogenic assay; format: cell-based; conditions: Homo sapiens
[2] = HRO761 120mg/kg, day 0 post 1st dose

## CCc1c(N2CCN(C(=O)c3ncnc(C)c3O)CC2)c(=O)n2nc(C3=CCOCC3)nc2n1CC(=O)Nc1ccc(C(F)(F)F)cc1Cl [HRO761]
[1]; HRO761 60mg/kg, day 28 post 1st dose
  Mean DBW: 5.12%
[1]; HRO761 60mg/kg, day 31 post 1st dose
  Mean DBW: 5.38%
[1]; HRO761 60mg/kg, day 35 post 1st dose
  Mean DBW: 4.36%
[1]; HRO761 60mg/kg, day 38 post 1st dose
  Mean DBW: 2.35%
[1]; HRO761 60mg/kg, day 42 post 1st dose
  Mean DBW: 3.45%
[1]; HRO761 60mg/kg, day 45 post 1st dose
  Mean DBW: 2.45%
[1]; HRO761 60mg/kg, day 49 post 1st dose
  Mean DBW: 3.51%
[1]; HRO761 60mg/kg, day 52 post 1st dose
  Mean DBW: 2.35%
[1]; HRO761 60mg/kg, day 56 post 1st dose
  Mean DBW: 2.93%
[1]; HRO761 60mg/kg, day 59 post 1st dose
  Mean DBW: 4.86%
[1]; HRO761 60mg/kg, day 63 post 1st dose
  Mean DBW: 4.98%
[1]; HRO761 60mg/kg, day 66 post 1st dose
  Mean DBW: 5.96%
[1]; HRO761 60mg/kg, day 70 post 1st dose
  Mean DBW: 5.36%
[1]; HRO761 60mg/kg, day 73 post 1st dose
  Mean DBW: 5.45%
[1]; HRO761 60mg/kg, day 76 post 1st dose
  Mean DBW: 8.05%
[1]; HRO761 60mg/kg, day 79 post 1st dose
  Mean DBW: 6.02%
[1]; HRO761 60mg/kg, day 83 post 1st dose
  Mean DBW: 6.63%
[1]; HRO761 60mg/kg, day 86 post 1st dose
  Mean DBW: 7.71%
[1]; [2]
  Delta BW change, individual mouse: 0%
  Mean DBW: 0.00%
[1]; HRO761 120mg/kg, day 3 post 1st dose
  Mean DBW: -2.05%
[1]; HRO761 120mg/kg, day 3 post 1st dose, 120 mg/kg
  Delta BW change, individual mouse: -1.24% and 0% and -5.24% and -5.96% and 2.18%
[1]; HRO761 120mg/kg, day 7 post 1st dose
  Mean DBW: 0.64%
[1]; HRO761 120mg/kg, day 7 post 1st dose, 120 mg/kg
  Delta BW change, individual mouse: 0% (2×) and 3.8% and -3.23% and 2.62%
[1]; HRO761 120mg/kg, day 10 post 1st dose
  Mean DBW: 0.034%
[1]; HRO761 120mg/kg, day 10 post 1st dose, 120 mg/kg
  Delta BW change, individual mouse: 2.07% and 3.8% and -2.42% and -4.59% and 1.31%
[1]; HRO761 120mg/kg, day 14 post 1st dose
  Mean DBW: 1.43%
[1]; HRO761 120mg/kg, day 14 post 1st dose, 120 mg/kg
  Delta BW change, individual mouse: 4.15% and 4.56% and -2.82% and -0.92% and 2.18%
[1]; HRO761 120mg/kg, day 17 post 1st dose
  Mean DBW: 1.14%
[1]; HRO761 120mg/kg, day 21 post 1st dose
  Mean DBW: 5.29%
[1]; HRO761 120mg/kg, day 24 post 1st dose
  Mean DBW: 6.66%
[1]; HRO761 120mg/kg, day 28 post 1st dose
  Mean DBW: 5.89%
[1]; HRO761 120mg/kg, day 31 post 1st dose
  Mean DBW: 6.52%
[1]; HRO761 120mg/kg, day 35 post 1st dose
  Mean DBW: 7.34%
[1]; HRO761 120mg/kg, day 38 post 1st dose
  Mean DBW: 4.89%
[1]; HRO761 120mg/kg, day 42 post 1st dose
  Mean DBW: 6.61%
[1]; HRO761 120mg/kg, day 45 post 1st dose
  Mean DBW: 7.02%
[1]; HRO761 120mg/kg, day 49 post 1st dose
  Mean DBW: 8.54%
[1]; HRO761 120mg/kg, day 52 post 1st dose
  Mean DBW: 5.69%
[1]; HRO761 120mg/kg, day 56 post 1st dose
  Mean DBW: 7.31%
[1]; HRO761 120mg/kg, day 59 post 1st dose
  Mean DBW: 8.08%
[1]; HRO761 120mg/kg, day 63 post 1st dose
  Mean DBW: 9.90%
[1]; HRO761 120mg/kg, day 66 post 1st dose
  Mean DBW: 9.60%
[1]; HRO761 120mg/kg, day 70 post 1st dose
  Mean DBW: 9.57%
[1]; HRO761 120mg/kg, day 73 post 1st dose
  Mean DBW: 7.95%
[1]; HRO761 120mg/kg, day 76 post 1st dose
  Mean DBW: 11.43%
[1]; HRO761 120mg/kg, day 79 post 1st dose
  Mean DBW: 9.25%
[1]; HRO761 120mg/kg, day 83 post 1st dose
  Mean DBW: 10.23%
[1]; HRO761 120mg/kg, day 86 post 1st dose
  Mean DBW: 9.35%
[1]; HRO761 40mg/kg, day 90 post 1st dose
  Body weight change, group mean: 13.42
[1]; HRO761 40mg/kg, day 90 post 1st dose, 40 mg/kg
  Body weight change, individual animals: 12.73 and 18.18 and 7.58 and 10.23 and 18.39
[1]; HRO761 40mg/kg, day 92 post 1st dose
  Body weight change, group mean: 10.60
[1]; HRO761 40mg/kg, day 92 post 1st dose, 40 mg/kg
  Body weight change, individual animals: 10.45 and 10.82 and 5.05 and 12.5 and 14.18
[1]; HRO761 60mg/kg, day 90 post 1st dose
  Body weight change, group mean: 7.89
[1]; HRO761 60mg/kg, day 90 post 1st dose, 60 mg/kg
  Body weight change, individual animals: 7.66 and 9.39 and 10.88 and 1.67 and 9.83
[1]; HRO761 60mg/kg, day 92 post 1st dose
  Body weight change, group mean: 5.46
[1]; HRO761 60mg/kg, day 92 post 1st dose, 60 mg/kg
  Body weight change, individual animals: 5.11 and 6.53 and 6.69 and 0.42 and 8.55
[1]; HRO761 120mg/kg, day 90 post 1st dose
  Body weight change, group mean: 10.59
[1]; HRO761 120mg/kg, day 90 post 1st dose, 120 mg/kg
  Body weight change, individual animals: 9.96 and 14.07 and 7.66 and 5.96 and 15.28
[1]; HRO761 120mg/kg, day 92 post 1st dose
  Body weight change, group mean: 7.50
[1]; HRO761 120mg/kg, day 92 post 1st dose, 120 mg/kg
  Body weight change, individual animals: 5.81 and 9.13 and 4.84 and 5.5 and 12.23
[1]; doses up to 120 mg per kg
  toxicity inferred from animal weight: did not cause toxicity
JHUEM2
  GI50: 929 nM
